Patent publication US20240043928A1, “BIOMARKERS FOR MYELODYSPLASTIC SYNDROME (MDS) AND METHODS OF USING THE SAME” (Eisai R&D Management Co., Ltd., priority 2020, published 2024)

Experiment: Phase I study NCT02841540: treatment-related adverse events and dose-limiting toxicities
Format: in vivo, human
Source text: Patients were enrolled using a conventional 3+3 dose escalation phase I design, with escalations based on a modified Fibonacci sequence scheme (Storer Biometrics. 1989;45(3):925-937). Dose escalations continued until a dose level at which ≥2 patients of the 3-6 enrolled experienced a dose-limiting toxicity (DLT). Maximally tolerated dose (MTD) was defined as the highest dose at which no more than 1 out of 6 patients experienced a DLT. DLTs were defined as any of the following: any Grade 3 or greater study drug-related non-hematologic toxicity except for Grade 3 nausea, vomiting, fatigue, or diarrhea that resolved to Grade 1 or less within 1 week; failure to administer at least 70% of the protocol-specific dose; or prolonged myelosuppression with the persistence of Grade 4 cytopenia in the absence of persistent leukemia or blast increase 21 or more days after suspending dosing. DLTs were assessed during the first 28 days using National Cancer Institute (NCI) Common Toxicity Criteria for Adverse Events (CTCAE) version 4.03.
The primary endpoints measured included occurrence of DLTs, the type and frequency of treatment-emergent adverse events (TEAEs), and serious adverse events (SAEs). Key secondary endpoints included drug pharmacokinetics (PK) and preliminary antitumor activity, such as the overall response rate (ORR), effect of drug therapy on transfusion requirements, and overall survival (OS). Biomarker analyses and drug pharmacodynamics (PD) were included as exploratory endpoints. […] In addition, a second schedule (Schedule II) of 21 days on therapy and a rest of 7 days without therapy was explored. […] However, when limited clinical activity was observed on Schedule I, Schedule II was introduced to test whether more prolonged spliceosome modulation would lead to higher clinical activity. Each treatment cycle was 28 days in length. Patients could continue treatment until disease progression or development of unacceptable toxicity.
Eligibility criteria included normal vitamin A levels and visual acuity that corrected to 20/40 unless a cataract was present. Ophthalmologic evaluation, including fundoscopic imaging and visual evoked potentials, was performed during study screening and periodically throughout the duration of the trial.

[1] = Schedule I, 1, 2, 3.5, & 5 mg QD, N = 25

In the case of C/C(=C\C=C\[C@@H](C)c1ccccn1)[C@H]1OC(=O)C[C@H](O)CC[C@@](C)(O)[C@@H](OC(=O)N2CCN(C)CC2)/C=C/[C@@H]1C [Compound 1, (2S,3S,4E,6S,7R,10R)-7,10-dihydroxy-3,7-dimethyl-12-oxo-2-[(2E,4E,6R)-6-(pyridine-2-yl)hepta-2,4-dien-2-yl]oxacyclododec-4-en-6-yl-4-methylpiperazine-1-carboxylate], the “adverse event in a patient with SF3B1-mutant lower-risk MDS” value (7 mg, Schedule I, first week of study therapy) is reported as “developed pancytopenia and marrow aplasia”, the “male share of subjects who reported grade 3 treatment related AEs” value (9 of the 12 subjects) is reported as 75% and the “male share of subjects reporting treatment related AEs (all grades)” value (45 of the 63 subjects) is reported as 71%. The “MTD (initially defined, not formally confirmed)” value (Schedule I) was 30 mg, the “recommended QD dose” value (Schedule I) was 30 mg per day and the “dose dependency in the rate of treatment related TEAEs (all grades)” value (Schedule I, 1 mg-40 mg) was “no obvious dose dependency”. The “Any TEAE (treatment-related, all grades)” value (Schedule I, 7 mg QD, N = 14) was 11 (79) n (%), the “Diarrhea (treatment-related TEAE, all grades)” value (Schedule I, 7 mg QD, N = 14) was 4 (29) n (%) and the “Fatigue (treatment-related TEAE, all grades)” value (Schedule I, 7 mg QD, N = 14) was 2 (14) n (%). For the same compound, the “Nausea (treatment-related TEAE, all grades)” value (Schedule I, 7 mg QD, N = 14) was 4 (29) n (%), the “Vomiting (treatment-related TEAE, all grades)” value (Schedule I, 7 mg QD, N = 14) was 2 (14) n (%) and the “patients with DLT marrow aplasia” value (Schedule I, 7 mg, lower-risk MDS and SF3B1 mutation) was 1 patient. For the same compound, the “Any TEAE (treatment-related, all grades)” value (Schedule I, 10 mg QD, N = 7) was 3 (43) n (%), the “Diarrhea (treatment-related TEAE, all grades)” value (Schedule I, 10 mg QD, N = 7) was 2 (29) n (%) and the “Fatigue (treatment-related TEAE, all grades)” value (Schedule I, 10 mg QD, N = 7) was 1 (14) n (%). The “Nausea (treatment-related TEAE, all grades)” value (Schedule I, 10 mg QD, N = 7) was 2 (29) n (%), the “Vomiting (treatment-related TEAE, all grades)” value (Schedule I, 10 mg QD, N = 7) was 2 (29) n (%) and the “Any TEAE (treatment-related, all grades)” value (Schedule I, 14 mg QD, N = 5) was 5 (100) n (%). The “Diarrhea (treatment-related TEAE, all grades)” value (Schedule I, 14 mg QD, N = 5) was 5 (100) n (%), the “Fatigue (treatment-related TEAE, all grades)” value (Schedule I, 14 mg QD, N = 5) was 0 n (%) and the “Nausea (treatment-related TEAE, all grades)” value (Schedule I, 14 mg QD, N = 5) was 1 (20) n (%). The “Vomiting (treatment-related TEAE, all grades)” value (Schedule I, 14 mg QD, N = 5) was 1 (20) n (%), the “Any TEAE (treatment-related, all grades)” value (Schedule I, 20 mg QD, N = 4) was 3 (75) n (%) and the “Diarrhea (treatment-related TEAE, all grades)” value (Schedule I, 20 mg QD, N = 4) was 1 (25) n (%). The “Fatigue (treatment-related TEAE, all grades)” value (Schedule I, 20 mg QD, N = 4) was 2 (50) n (%), the “Nausea (treatment-related TEAE, all grades)” value (Schedule I, 20 mg QD, N = 4) was 2 (50) n (%) and the “Vomiting (treatment-related TEAE, all grades)” value (Schedule I, 20 mg QD, N = 4) was 0 n (%). For the same compound, the “Any TEAE (treatment-related, all grades)” value (Schedule I, 30 mg QD, N = 4) was 4 (100) n (%), the “Diarrhea (treatment-related TEAE, all grades)” value (Schedule I, 30 mg QD, N = 4) was 3 (75) n (%) and the “Fatigue (treatment-related TEAE, all grades)” value (Schedule I, 30 mg QD, N = 4) was 1 (25) n (%). The “Nausea (treatment-related TEAE, all grades)” value (Schedule I, 30 mg QD, N = 4) was 3 (75) n (%), the “Vomiting (treatment-related TEAE, all grades)” value (Schedule I, 30 mg QD, N = 4) was 0 n (%) and the “patients with DLT prolonged QTcF >500 msec (investigator-assessed)” value (Schedule I, 40 mg) was 2 out of 6. The “subjects reporting grade 3 AEs” value (Schedule I, 40 mg) was 3 of 6, the “Any TEAE (treatment-related, all grades)” value (Schedule I, 40 mg QD, N = 6) was 5 (83) n (%) and the “Diarrhea (treatment-related TEAE, all grades)” value (Schedule I, 40 mg QD, N = 6) was 5 (83) n (%). For the same compound, the “Fatigue (treatment-related TEAE, all grades)” value (Schedule I, 40 mg QD, N = 6) was 2 (33) n (%), the “Nausea (treatment-related TEAE, all grades)” value (Schedule I, 40 mg QD, N = 6) was 3 (50) n (%) and the “Vomiting (treatment-related TEAE, all grades)” value (Schedule I, 40 mg QD, N = 6) was 3 (50) n (%). The “subjects reporting a treatment related TEAE” value (Schedule I, 40 mg, N=6) was 83%, the “Any TEAE (treatment-related, all grades)” value [1] was 19 (76) n (%) and the “Diarrhea (treatment-related TEAE, all grades)” value [1] was 7 (28) n (%). For the same compound, the “Fatigue (treatment-related TEAE, all grades)” value [1] was 3 (12) n (%), the “Nausea (treatment-related TEAE, all grades)” value [1] was 3 (12) n (%) and the “Vomiting (treatment-related TEAE, all grades)” value [1] was 1 (4) n (%). For the same compound, the “Anemia (Grade 3 or 4 treatment-related TEAE)” value (Schedule I, N = 65) was 4 (6) n (%), the “ECG QTcF prolonged (Grade 3 or 4 treatment-related TEAE)” value (Schedule I, N = 65) was 2 (3) n (%) and the “Fatigue (Grade 3 or 4 treatment-related TEAE)” value (Schedule I, N = 65) was 2 (3) n (%). The “Hypophosphatemia (Grade 3 or 4 treatment-related TEAE)” value (Schedule I, N = 65) was 0 n (%), the “Nausea (Grade 3 or 4 treatment-related TEAE)” value (Schedule I, N = 65) was 0 n (%) and the “Platelet count decreased (Grade 3 or 4 treatment-related TEAE)” value (Schedule I, N = 65) was 2 (3) n (%). The “Sinus bradycardia (Grade 3 or 4 treatment-related TEAE)” value (Schedule I, N = 65) was 0 n (%), the “Any TEAE (treatment-related, all grades)” value (Schedule I, Total, N = 65) was 50 (77) n (%) and the “Diarrhea (treatment-related TEAE, all grades)” value (Schedule I, Total, N = 65) was 27 (42) n (%). The “Fatigue (treatment-related TEAE, all grades)” value (Schedule I, Total, N = 65) was 11 (17) n (%), the “Nausea (treatment-related TEAE, all grades)” value (Schedule I, Total, N = 65) was 18 (28) n (%) and the “Vomiting (treatment-related TEAE, all grades)” value (Schedule I, Total, N = 65) was 9 (14) n (%). The “diarrhea, treatment-related TEAE” value (Schedule I, all patients) was 42%, the “fatigue, treatment-related TEAE” value (Schedule I, all patients) was 17% and the “nausea, treatment-related TEAE” value (Schedule I, all patients) was 28%. The “vomiting, treatment-related TEAE” value (Schedule I, all patients) was 14%, the “subjects reporting a treatment related TEAE” value (Schedule I, lowest combined dose level (1, 2, 3.5 and 5 mg, N=25)) was 76% and the “MTD (initially defined, not formally confirmed)” value (Schedule II) was 14 mg. The “recommended QD dose” value (Schedule II) was 14 mg per day.
